PubChem BioAssay AID192 (DTP/NCI, 2004)
Where “and” joins values, the source holds several entries; their conditions need not be identical. Equal values may be shown once. Toxic doses and inconclusive results are not listed. Rule for the calls: active = survival T/C of 150% or more; inactive = T/C below 125% in these data.

Tested on: BDF1 mice, B16 melanoma ip, median survival T/C
Assay: NCI In Vivo Anticancer Drug Screen. Data for tumor model B16 Melanoma (intraperitoneal) in B6D2F1 (BDF1) mice
Settings: endpoint: median survival time, higher = longer survival
Method in brief: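 The ratio T/C compares compound-treated mice with vehicle-treated controls, using survival or tumor size as the endpoint in a transplantable tumor model.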

[1] = dose: 6.25 mg/kg/injection, schedule: Q01DX009 (ip), vehicle: saline with Tween-80
[2] = dose: 25.0 mg/kg/injection, schedule: Q01DX009 (ip), vehicle: saline with Tween-80
[3] = dose: 100.0 mg/kg/injection, schedule: Q01DX009 (ip), vehicle: saline with Tween-80
[4] = dose: 100.0 mg/kg/injection, schedule: Q04DX003 (ip), vehicle: Klucel (hydroxypropylcellulose) (HPC)
[5] = dose: 200.0 mg/kg/injection, schedule: Q04DX003 (ip), vehicle: Klucel (hydroxypropylcellulose) (HPC)
[6] = dose: 100.0 mg/kg/injection, schedule: Q01DX009 (ip), vehicle: Klucel (hydroxypropylcellulose) (HPC)
[7] = dose: 200.0 mg/kg/injection, schedule: Q01DX009 (ip), vehicle: Klucel (hydroxypropylcellulose) (HPC)
[8] = dose: 400.0 mg/kg/injection, schedule: Q01DX009 (ip), vehicle: Klucel (hydroxypropylcellulose) (HPC)
[9] = dose: 5.0 mg/kg/injection, schedule: Q01DX009 (ip), vehicle: Klucel (hydroxypropylcellulose) (HPC)
[10] = dose: 10.0 mg/kg/injection, schedule: Q01DX009 (ip), vehicle: Klucel (hydroxypropylcellulose) (HPC)
[11] = dose: 12.5 mg/kg/injection, schedule: Q01DX009 (ip), vehicle: saline
[12] = dose: 25.0 mg/kg/injection, schedule: Q01DX009 (ip), vehicle: saline
[13] = dose: 50.0 mg/kg/injection, schedule: Q01DX009 (ip), vehicle: saline
[14] = dose: 100.0 mg/kg/injection, schedule: Q01DX009 (ip), vehicle: saline
[15] = dose: 25.0 mg/kg/injection, schedule: Q01DX009 (ip), vehicle: Klucel (hydroxypropylcellulose) (HPC)
[16] = dose: 50.0 mg/kg/injection, schedule: Q01DX009 (ip), vehicle: Klucel (hydroxypropylcellulose) (HPC)
[17] = dose: 0.25 mg/kg/injection, schedule: Q01DX009 (ip), vehicle: saline
[18] = dose: 0.5 mg/kg/injection, schedule: Q01DX009 (ip), vehicle: saline
[19] = dose: 200.0 mg/kg/injection, schedule: Q01DX009 (ip), vehicle: saline
[20] = dose: 400.0 mg/kg/injection, schedule: Q01DX009 (ip), vehicle: saline
[21] = dose: 6.25 mg/kg/injection, schedule: Q01DX009 (ip), vehicle: Klucel (hydroxypropylcellulose) (HPC)
[22] = dose: 12.5 mg/kg/injection, schedule: Q01DX009 (ip), vehicle: Klucel (hydroxypropylcellulose) (HPC)
[23] = dose: 2.0 mg/kg/injection, schedule: Q01DX009 (ip), vehicle: saline
[24] = dose: 4.0 mg/kg/injection, schedule: Q01DX009 (ip), vehicle: saline

Measured: T/C

CC(C)CN(CC(C)C)c1ccc([N+](=O)[O-])cc1[N+](=O)[O-]
inactive: [1] 105 % of control | dose: 12.5 mg/kg/injection, schedule: Q01DX009 (ip), vehicle: saline with Tween-80 107 % of control | [2] 87 % of control and 114 % of control | [3] 105 % of control | dose: 400.0 mg/kg/injection, schedule: Q01DX009 (ip), vehicle: saline with Tween-80 86 % of control

COc1cccc2c1C(=N)c1c(O)c3c(c(O)c1C2=O)C[C@@](O)(C(=O)CO)C[C@@H]3OC1CC(N)C(O)C(C)O1 (some centres not stated)
active: dose: 25.0 mg/kg/injection, schedule: Q01DX001 (ip), vehicle: water 230 % of control | dose: 50.0 mg/kg/injection, schedule: Q01DX001 (ip), vehicle: water 292 % of control | dose: 100.0 mg/kg/injection, schedule: Q01DX001 (ip), vehicle: water 307 % of control

CCCCCCCCOc1ccc(C(=O)c2ccccc2)c(O)c1
inactive: dose: 6.0 mg/kg/injection, schedule: Q01DX009 (ip), vehicle: Klucel (hydroxypropylcellulose) (HPC) 92 % of control | [4] 91 % of control | [5] 93 % of control

Cc1ccc(N=P(c2ccccc2)(c2ccccc2)c2ccccc2)cc1
inactive: [6] 94 % of control | [7] 108 % of control | [8] 91 % of control

Nc1nc(F)nc2nc[nH]c12
inactive: [9] 88 % of control and 109 % of control | [10] 90 % of control and 118 % of control | dose: 20.0 mg/kg/injection, schedule: Q01DX009 (ip), vehicle: Klucel (hydroxypropylcellulose) (HPC) 95 % of control and 122 % of control

NC(=S)N/N=C/c1ccc(O)cn1
inactive: dose: 9.4 mg/kg/injection, schedule: Q01DX009 (ip), vehicle: saline with Tween-80 103 % of control | [11] 108 % of control | dose: 18.8 mg/kg/injection, schedule: Q01DX009 (ip), vehicle: saline with Tween-80 102 % of control and 119 % of control and 121 % of control | [12] 110 % of control | dose: 37.5 mg/kg/injection, schedule: Q01DX009 (ip), vehicle: saline with Tween-80 109 % of control and 111 % of control and 120 % of control | [13] 113 % of control and 122 % of control | dose: 75.0 mg/kg/injection, schedule: Q01DX009 (ip), vehicle: saline with Tween-80 114 % of control and 121 % of control and 124 % of control | [14] 115 % of control and 120 % of control | dose: 150.0 mg/kg/injection, schedule: Q01DX009 (ip), vehicle: saline with Tween-80 105 % of control and 115 % of control

O=[N+]([O-])c1cccc([N+](=O)[O-])c1Cl
inactive: dose: 10.0 mg/kg/injection, schedule: Q01DX009 (ip), vehicle: saline with Tween-80 99 % of control | dose: 20.0 mg/kg/injection, schedule: Q01DX009 (ip), vehicle: saline with Tween-80 94 % of control | dose: 40.0 mg/kg/injection, schedule: Q01DX009 (ip), vehicle: saline with Tween-80 95 % of control | dose: 80.0 mg/kg/injection, schedule: Q01DX009 (ip), vehicle: saline with Tween-80 93 % of control | dose: 160.0 mg/kg/injection, schedule: Q01DX009 (ip), vehicle: saline with Tween-80 91 % of control

COc1cc2c(c(OC)c1OC)-c1cc3c(cc1[C@@H](OC(C)=O)[C@@H]1COC(=O)[C@H]1C2)OCO3
inactive: dose: 1.25 mg/kg/injection, schedule: Q01DX009 (ip), vehicle: Klucel (hydroxypropylcellulose) (HPC) 104 % of control | dose: 2.5 mg/kg/injection, schedule: Q01DX009 (ip), vehicle: Klucel (hydroxypropylcellulose) (HPC) 94 % of control | [9] 104 % of control | [10] 102 % of control

O=C1CC(c2ccc(O)cc2)CC(=O)C1C(C1CC=CCC1)N(CCCl)CCCl (configuration not stated)
inactive: [15] 88 % of control | [16] 95 % of control | [6] 90 % of control | [7] 92 % of control | [8] 97 % of control

O[C@H](CN1CC1)[C@@H](O)CN1CC1
inactive: dose: 0.13 mg/kg/injection, schedule: Q01DX009 (ip), vehicle: saline 117 % of control
active: [17] 151 % of control | [18] 166 % of control

O=[N+]([O-])c1ccc2c(N=Nc3ccc4ccccc4c3O)c(O)cc(S(=O)(=O)O)c2c1
inactive: dose: 37.5 mg/kg/injection, schedule: Q01DX009 (ip), vehicle: Klucel (hydroxypropylcellulose) (HPC) 94 % of control | dose: 75.0 mg/kg/injection, schedule: Q01DX009 (ip), vehicle: Klucel (hydroxypropylcellulose) (HPC) 98 % of control

Nc1cccc2c1C(=O)c1cccc(NC(=O)c3ccccc3)c1C2=O
inactive: [6] 90 % of control | [7] 106 % of control | [8] 90 % of control

C=CCNC(=S)Nc1cccc(Cl)c1C
inactive: dose: 12.5 mg/kg/injection, schedule: Q04DX003 (ip), vehicle: Klucel (hydroxypropylcellulose) (HPC) 93 % of control | dose: 25.0 mg/kg/injection, schedule: Q04DX003 (ip), vehicle: Klucel (hydroxypropylcellulose) (HPC) 100 % of control | dose: 50.0 mg/kg/injection, schedule: Q04DX003 (ip), vehicle: Klucel (hydroxypropylcellulose) (HPC) 100 % of control

OCC1OC(n2cnc3c(Cl)ncnc32)C(O)C1O (configuration not stated)
inactive: [11] 123 % of control | [12] 102 % of control | [13] 108 % of control | [14] 105 % of control | [19] 106 % of control | [20] 106 % of control

C[C@H]1C[C@@H]2[C@H]([C@@H](O)C[C@@]3(C)[C@H]2CC[C@]3(O)C(=O)CO)[C@@]2(C)C=CC(=O)C=C12
inactive: [21] 115 % of control | [22] 115 % of control | [15] 117 % of control | [6] 116 % of control | [7] 112 % of control

O=C1OC(C(O)CO)C(O)=C1O (configuration not stated)
inactive: dose: 0.12 mg/kg/injection, schedule: Q01DX009 (ip), vehicle: saline 100 % of control | [17] 110 % of control | [18] 105 % of control | dose: 1.0 mg/kg/injection, schedule: Q01DX001 (ip), vehicle: saline 102 % of control | dose: 1.0 mg/kg/injection, schedule: Q01DX009 (ip), vehicle: saline 110 % of control | dose: 2.0 mg/kg/injection, schedule: Q01DX001 (ip), vehicle: saline 100 % of control | [23] 110 % of control | dose: 4.0 mg/kg/injection, schedule: Q01DX001 (ip), vehicle: saline 95 % of control | [24] 105 % of control | dose: 8.0 mg/kg/injection, schedule: Q01DX001 (ip), vehicle: saline 102 % of control | dose: 8.0 mg/kg/injection, schedule: Q01DX009 (ip), vehicle: saline 110 % of control | dose: 16.0 mg/kg/injection, schedule: Q01DX001 (ip), vehicle: saline 100 % of control | dose: 16.0 mg/kg/injection, schedule: Q01DX009 (ip), vehicle: saline 95 % of control | dose: 32.0 mg/kg/injection, schedule: Q01DX001 (ip), vehicle: saline 100 % of control | dose: 64.0 mg/kg/injection, schedule: Q01DX001 (ip), vehicle: saline 97 % of control

C[As](C)Sc1ccnc(S[As](C)C)n1
inactive: [16] 100 % of control | [6] 119 % of control

NC1CCC(CCCC2CCCC2)CC1 (configuration not stated)
inactive: [21] 96 % of control | [22] 86 % of control | [15] 89 % of control

O=C(O)c1[nH]c(=O)[nH]c(=O)c1F
inactive: [23] 92 % of control | [24] 95 % of control

CC1CNC(=S)O1 (configuration not stated)
inactive: [12] 97 % of control | [13] 91 % of control | [14] 91 % of control | [19] 89 % of control | [20] 91 % of control

CCCCCC(=O)c1ccc(OCCCN2CCN(C(=O)OCC)CC2)cc1
inactive: [3] 98 % of control | dose: 200.0 mg/kg/injection, schedule: Q01DX009 (ip), vehicle: saline with Tween-80 87 % of control

OCc1cc2ccccc2[nH]1
inactive: [4] 112 % of control | [5] 110 % of control | dose: 400.0 mg/kg/injection, schedule: Q04DX003 (ip), vehicle: Klucel (hydroxypropylcellulose) (HPC) 106 % of control

Cc1cc2cc3cc(C)c(N)cc3nc2cc1N
inactive: dose: 3.12 mg/kg/injection, schedule: Q01DX009 (ip), vehicle: saline with Tween-80 116 % of control | [1] 121 % of control | [2] 119 % of control
